Assay results as given in patent US9770520B2, “Chelate nanoemulsion for MRI” (GUERBET, priority 2011, dated 2017).

Molecular target: T1, ∞vβ3 (Homo sapiens, UniProt P05106+P06756)
T1 construct: performed on HUVEC cells overexpressing ∞vβ3; endogenous in cells; host or cells: HUVEC
Test: IC50 by competition with echistatin 125I on HUVEC cells
Format: binding
Conditions: competition with echistatin-125I-SIB, read-out: IC50 (nM of targeting ligand)

## CCCCCCCCCCCCCCCCCC(=O)OCC(COP(=O)(O)OCCNC(=O)OCCOCCOCCOCCOCCOCCOCCOCCOCCOCCOCCOCCOCCOCCOCCOCCOCCOCCOCCOCCOCCOCCOCCOCCOCCOCCOCCOCCOCCOCCOCCOCCOCCOCCOCCOCCOCCOCCOCCOCCOCCOCCOCCOCCOCCNc1c(NCCNC(=O)CCCOc2cc(C)c(S(=O)(=O)CNC(NC(=O)CCCCc3ccc4c(n3)NCCC4)C(=O)O)c(C)c2)c(=O)c1=O)OC(=O)CCCCCCCCCCCCCCCCC (stereo not shown) [Example 6]
  IC50: 0.4 nM
